Source: US20110217300A1, “Quinazolinone Compounds and Methods of Use Thereof” (priority 2007, published 2011)
pIC50: −log10 of the molar value. Where two headings read alike, the source gives them in different places.

Tests used:
NCI-H460 = test: MTS cell viability assay; format: cell-based, human; details: Homo sapiens, NCI-H460, 72 h
Outline: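 Human cancer cells plated at 100-5000 cells/well, left 16-24 h, then exposed 72 h to serially diluted compound (final DMSO 0.33%) in DMEM with 10% FBS at 37° C. MTS/PMS added for 4 h, SDS-stopped, absorbance read at 490 nm; GI50 derived, at least 2 replicates.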

A549 = test: MTS cell viability assay; format: cell-based; details: Homo sapiens, read-out: MTS NCI A549 GI50
Outline: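 A549 and a second human cancer line seeded in DMEM/10% FBS, allowed 16–24 h to attach, then exposed 72 h at 37 °C, 5% CO2 to serially diluted compound (final DMSO 0.33%). Viability measured by MTS.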

HsEg5 [1] = biological target: T1, HsEg5 (Homo sapiens, UniProt P52732); test: Fluorescence detection of HsEg5 ATPase activity (ADP Quest, automated); format: biochemical
T1 sequence (P52732 18-359 limits assumed): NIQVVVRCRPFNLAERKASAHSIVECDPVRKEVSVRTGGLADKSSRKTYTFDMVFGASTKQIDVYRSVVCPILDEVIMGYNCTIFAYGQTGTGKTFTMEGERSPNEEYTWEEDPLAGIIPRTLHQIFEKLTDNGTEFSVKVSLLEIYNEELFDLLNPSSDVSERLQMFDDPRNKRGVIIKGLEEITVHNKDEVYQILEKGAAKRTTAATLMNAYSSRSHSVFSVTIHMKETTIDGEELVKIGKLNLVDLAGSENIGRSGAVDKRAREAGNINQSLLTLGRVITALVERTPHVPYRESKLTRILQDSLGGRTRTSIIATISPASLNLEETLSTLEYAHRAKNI
Outline: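 Microtubule-activated HsEg5 motor fragment (10 nM, 500 nM MTs) preincubated 10 min with compound, then 20 μM ATP for 10 min at room temperature in Pipes pH 7.0, MgCl2, paclitaxel, 0.3% DMSO. ADP detected via coupled-enzyme resorufin fluorescence; IC50 over 100 μM–5 nM.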

HsEg5 [2] = biological target: T1, HsEg5; test: Luminescent detection of HsEg5 ATPase activity (Kinase-Glo Plus); format: biochemical
Protocol: Purified HsEg5 motor fragment was activated by mixture with preformed MT polymer (Cytoskeleton, Denver, Colo.) at room temperature for 20 minutes. MT activated ATPase activity was measured using Kinase-Glo® Plus Luminescent Kinase Assay (Promega, Madison, Wis.).
For inhibitor screening, 5 μL of compounds were incubated with 20 μL of MT-activated HsEg5 such that the final concentrations for compound range from 100 μM to 5 nM (1 to 3 serial dilutions, final concentration) and final concentration for HsEg5 is 25 nM. The mixture was incubated at room temperature for 20 minutes with mild shaking. The screening assay contained 0.3% DMSO in all reaction wells. We used wells containing only DMSO as negative controls and wells without ATP as background. Addition of 15 μL of 13 μM ATP (final concentration of 5 μM) initiated the ATP hydrolysis reaction. The 40 μL-reaction was allowed to proceed at room temperature for 45 minutes before addition of 40 μL of Kinase®-Glo Plus. After 15-minute development at room temperature, the luminescent was measured.
Eg5 IC50 data was generated using both fluorescence and Luminescence detection assays as described above. Compounds I-69 were screened using automated fluorescence assay while compounds 70-83 were screened using Luminescence detection assay. (See reference “Zhang B, Senator D, Wilson C J, Ng S C. (2005) “Development of a high-throughput robotic fluorescence-based assay for HsEg5 inhibitor screening” Anal Biochem. 345:326-335″).

[3] = read-out: MTS NCI H460 GI50, NCI-H460 non small cell lung, 72 hours
[4] = A549, 72 h, A549 non small cell lung, 72 hours
[5] = A549 non small cell lung, 72 hours

pIC50 (HsEg5 [2])	Structure (SMILES)	GI50 (NCI-H460; [3]) [µM]	GI50 (A549; [4]) [µM]	pIC50 (HsEg5 [1])	GI50 (NCI-H460; read-out: MTS NCI H460 GI50) [µM]	GI50 (A549; [5]) [µM]	GI50 (A549; A549, 72 h) [µM]
	NCCCN(C(=O)c1cccc(F)c1F)C(Cc1cccs1)c1nc2cc(Cl)ccc2c(=O)n1Nc1ccccc1 (stereo not shown) [Compound 50, N-(3-Aminopropyl)-N-[1-(3-anilino-7-chloro-4-oxo-3,4-dihydroquinazolin-2-yl)-2-(2-thienyl)ethyl]-2,3-difluorobenzamide]	3.12	3.77	5.93			
	NCCCN(C(=O)c1ccc(F)cc1)C(Cc1cccs1)c1nc2cc(Cl)ccc2c(=O)n1Nc1ccccc1 (stereo not shown) [Compound 51, N-(3-Aminopropyl)-N-[1-(3-anilino-7-chloro-4-oxo-3,4-dihydroquinazolin-2-yl)-2-(2-thienyl)ethyl]-4-fluorobenzamide]			5.55	5.38	4.45	
	NCCCN(C(=O)c1ccc(F)c(F)c1)C(Cc1cccs1)c1nc2cc(Cl)ccc2c(=O)n1Nc1ccccc1 (stereo not shown) [Compound 52, N-(3-Aminopropyl)-N-[1-(3-anilino-7-chloro-4-oxo-3,4-dihydroquinazolin-2-yl)-2-(2-thienyl)ethyl]-3,4-difluorobenzamide]	3.47	4.29	5.90			
	NCCCN(C(=O)c1ccc(F)c(Cl)c1)C(Cc1cccs1)c1nc2cc(Cl)ccc2c(=O)n1Nc1ccccc1 (stereo not shown) [Compound 53, N-(3-Aminopropyl)-N-[1-(3-anilino-7-chloro-4-oxo-3,4-dihydroquinazolin-2-yl)-2-(2-thienyl)ethyl]-3-chloro-4-fluorobenzamide]	4.44	5.26	5.58			
	NCCCN(C(=O)c1ccc(Cl)c(Cl)c1)C(Cc1ccc(O)cc1)c1nc2cc(Cl)ccc2c(=O)n1Nc1ccccc1 (stereo not shown) [Compound 54, N-(3-Aminopropyl)-N-[1-(3-anilino-7-chloro-4-oxo-3,4-dihydroquinazolin-2-yl)-2-(4-hydroxyphenyl)ethyl]-3,4-dichlorobenzamide]	11.9	12.2	5.62			
	NCCCN(C(=O)c1ccc(F)c(F)c1F)C(Cc1ccc(O)cc1)c1nc2cc(Cl)ccc2c(=O)n1Nc1ccccc1 (stereo not shown) [Compound 55, N-(3-Aminopropyl)-N-[1-(3-anilino-7-chloro-4-oxo-3,4-dihydroquinazolin-2-yl)-2-(4-hydroxyphenyl)ethyl]-2,3,4-trifluorobenzamide]	16.1	33.7	5.38			
	C#CCC(c1nc2cc(Cl)ccc2c(=O)n1Nc1ccccc1)N(CCCN)C(=O)c1cc(F)c(Cl)cc1F (stereo not shown) [Compound 56, N-(3-Aminopropyl)-N-[1-(3-anilino-7-chloro-4-oxo-3,4-dihydroquinazolin-2-yl)but-3-yn-1-yl]-4-chloro-2,5-difluorobenzamide]			6.86	1.86	3.82	
	C#CCC(c1nc2cc(Cl)ccc2c(=O)n1Nc1ccccc1)N(CCCN)C(=O)c1cccc(Cl)c1F (stereo not shown) [Compound 57, N-(3-Aminopropyl)-N-[1-(3-anilino-7-chloro-4-oxo-3,4-dihydroquinazolin-2-yl)but-3-yn-1-yl]-3-chloro-2-fluorobenzamide]			7.30	0.766	0.433	
	CC(C)(C)CC(c1nc2cc(Cl)ccc2c(=O)n1Nc1ccccc1)N(CCCN)C(=O)c1ccc(Br)cc1 (stereo not shown) [Compound 58, N-(3-Aminopropyl)-N-[1-(3-anilino-7-chloro-4-oxo-3,4-dihydroquinazolin-2-yl)-3,3-dimethylbutyl]-4-bromobenzamide]			5.43	5.55	5.88	
	CCC(c1nc2cc(Cl)ccc2c(=O)n1Nc1ccccc1)N(CCN)C(=O)c1ccc(C)cc1 (stereo not shown) [Compound 61, N-(2-Aminoethyl)-N-[1-(3-anilino-7-chloro-4-oxo-3,4-dihydroquinazolin-2-yl)propyl]-4-methylbenzamide]			5.41	12.5	14.2	
	CCC(c1nc2cc(Cl)ccc2c(=O)n1Nc1ccccc1)N(CCN)C(=O)c1c(F)ccc(C)c1F (stereo not shown) [Compound 62, N-(2-Aminoethyl)-N-[1-(3-anilino-7-chloro-4-oxo-3,4-dihydroquinazolin-2-yl)propyl]-2,6-difluoro-3-methylbenzamide]			5.43	22.8	21.7	
	CCC(c1nc2cc(Cl)ccc2c(=O)n1Nc1ccccc1)N(CCN)C(=O)c1ccc(F)c(C)c1 (stereo not shown) [Compound 63, N-(2-Aminoethyl)-N-[1-(3-anilino-7-chloro-4-oxo-3,4-dihydroquinazolin-2-yl)propyl]-4-fluoro-3-methylbenzamide]			5.48	10.5	7.02	
	CCC(c1nc2cc(Cl)ccc2c(=O)n1Nc1ccccc1)N(CCN)C(=O)c1cccc(Cl)c1F (stereo not shown) [Compound 64, N-(2-Aminoethyl)-N-[1-(3-anilino-7-chloro-4-oxo-3,4-dihydroquinazolin-2-yl)propyl]-3-chloro-2-fluorobenzamide]			5.84	6.81	12.6	
	CCC(c1nc2cc(Cl)ccc2c(=O)n1Nc1ccccc1)N(CCN)C(=O)c1ccc(C)c(F)c1F (stereo not shown) [Compound 65, N-(2-Aminoethyl)-N-[1-(3-anilino-7-chloro-4-oxo-3,4-dihydroquinazolin-2-yl)propyl]-2,3-difluoro-4-methylbenzamide]			5.39	11.4	12.4	
	CCC(c1nc2cc(Cl)ccc2c(=O)n1Nc1ccccc1)N(CCCN)Cc1ccc(C)cc1 (stereo not shown) [Compound 67, 2-{1-[(3-Aminopropyl)(4-methyl-benzyl)amino]propyl}-3-anilino-7-chloro-3H-quinazolin-4-one]			5.08	13.1	15.5	
6.80	C#CC[C@H](c1nc2cc(Cl)ccc2c(=O)n1Nc1ccccc1)N(CCCN)C(=O)c1c(F)c(F)cc(F)c1F [Compound 71]				0.32		0.84
7.40	C#CC[C@H](c1nc2cc(Cl)ccc2c(=O)n1Nc1ccccc1)N(CCCN)C(=O)c1cc(F)c(F)c(F)c1F [Compound 72, (R)—N-(3-Aminopropyl)-N-(1-(7-chloro-4-oxo-3-(phenylamino)-3,4-dihydroquinazolin-2-yl)but-3-ynyl)-2,3,4,5-tetrafluorobenzamide]				0.33		0.62
6.92	C#CC[C@H](c1nc2cc(Cl)ccc2c(=O)n1Nc1ccccc1)N(CCCN)C(=O)c1cc2ccccc2s1 [Compound 73, (R)—N-(3-Aminopropyl)-N-(1-(7-chloro-4-oxo-3-(phenylamino)-3,4-dihydroquinazolin-2-yl)but-3-ynyl)benzo[b]thiophene-2-carboxamide]				0.33		0.49
5.23	CC#CCC(c1nc2cc(Cl)ccc2c(=O)n1Nc1ccccc1)N(CCCN)C(=O)c1cccc(Cl)c1F (stereo not shown) [Compound 74, N-(3-Aminopropyl)-3-chloro-N-(1-(7-chloro-4-oxo-3-(phenylamino)-3,4-dihydroquinazolin-2-yl)pent-3-ynyl)-2-fluorobenzamide]				1.23		1.8
7.52	C#CC[C@H](c1nc2cc(Cl)ccc2c(=O)n1Nc1ccccc1)N(CCCN)C(=O)c1cccc(F)c1F [Compound 82, (R)—N-(3-Aminopropyl)-N-(1-(7-chloro-4-oxo-3-(phenylamino)-3,4-dihydroquinazolin-2-yl)but-3-ynyl)-2,3-difluorobenzamide]						
